Measured values from ChEMBL document CHEMBL4680133, “Novel nitroimidazole derivatives evaluated for their trypanocidal, cytotoxic, and genotoxic activities” (Eur J Med Chem, 2020).

Experiments:
[1] = Selectivity index, ratio of GI50 for human HepG2 cells assessed as reduction in cell viability measured after 24 hrs by WST1 assay to IC50 for antitrypanosomal activity against Trypanosoma cruzi Y axenic amastigotes infected in African green monkey Vero cells; assay type: toxicity; settings: read-out: Selectivity Index
[2] = Mutagenicity in Salmonella typhimurium YG1021 at 5 to 100 ug/plate after 20 mins by microsome assay; assay type: toxicity; settings: salmonella enterica subsp. enterica serovar typhimurium, microsomes
[3] = tested on: HepG2; assay: Genotoxicity in human HepG2 assessed as mitotic index at 1880 uM measured after 24 hrs by micronucleus test (reference value: 61 to 108); assay type: toxicity, cell-based; settings: hepg2, 24 h
[4] = Mutagenicity in Salmonella typhimurium TA97 measured after 20 mins in presence of S9 fraction by microsome assay; assay type: toxicity, subcellular; settings: salmonella enterica subsp. enterica serovar typhimurium, s9, 20 min, dose 5-100 µg
[5] = tested on: HepG2; assay: Genotoxicity in human HepG2 assessed as number of micronucleated cells at 188 uM measured after 24 hrs by micronucleus test (reference value: 14 to 18); assay type: toxicity, cell-based; settings: hepg2, 24 h
[6] = tested on: RAW264.7; assay: Genotoxicity in mouse RAW264.7 cells assessed as mitotic index at 3760 uM measured after 24 hrs by micronucleus test (reference value: 40 to 249); assay type: toxicity, cell-based; settings: raw264.7, 24 h
[7] = Genotoxicity in mouse RAW264.7 cells assessed as survival at 376 uM measured after 24 hrs by micronucleus test (reference value: 100%); assay type: toxicity, cell-based; settings: read-out: Survival
[8] = Genotoxicity in human HepG2 assessed as survival at 188 uM measured after 24 hrs by micronucleus test (reference value: 100%); assay type: toxicity, cell-based; settings: HepG2 cells, read-out: Survival
[9] = Genotoxicity in mouse RAW264.7 cells assessed as survival at 188 uM measured after 24 hrs by micronucleus test (reference value: 100%); assay type: toxicity, cell-based; settings: read-out: Survival
[10] = tested on: RAW264.7; assay: Genotoxicity in mouse RAW264.7 cells assessed as number of micronucleated cells at 3760 uM measured after 24 hrs by micronucleus test (reference value: 12 to 15); assay type: toxicity, cell-based; settings: raw264.7, 24 h
[11] = tested on: Trypanosoma cruzi; assay: Antitrypanosomal activity against bloodstream form of Trypanosoma cruzi Y trypomastigotes infected in African green monkey Vero cells assessed as increase in parasite lysis measured after 24 hrs by Neubauer chamber method; assay type: functional, organism-based
[12] = tested on: HepG2; assay: Genotoxicity in human HepG2 assessed as mitotic index at 188 uM measured after 24 hrs by micronucleus test (reference value: 61 to 108); assay type: toxicity, cell-based; settings: hepg2, 24 h
[13] = Toxicity in Salmonella typhimurium YG1021 at 5 to 100 ug/plate after 20 mins by colony counting method; settings: salmonella enterica subsp. enterica serovar typhimurium, dose 5-100 µg
[14] = Mutagenicity in Salmonella typhimurium TA102 measured after 20 mins in absence of S9 fraction by microsome assay; assay type: toxicity; settings: salmonella enterica subsp. enterica serovar typhimurium, microsomes, dose 5-100 µg
[15] = Mutagenicity in Salmonella typhimurium TA100 assessed as revertant/ug measured after 20 mins in presence of S9 fraction by microsome assay; assay type: toxicity, subcellular; settings: salmonella enterica subsp. enterica serovar typhimurium, s9, 20 min
[16] = Cytotoxicity against human HepG2 cells assessed as reduction in cell viability measured after 24 hrs by WST1 assay; assay type: cell-based
[17] = Mutagenicity in Salmonella typhimurium TA100 assessed as revertant/ug measured after 20 mins in absence of S9 fraction by microsome assay; assay type: toxicity; settings: salmonella enterica subsp. enterica serovar typhimurium, microsomes
[18] = Mutagenicity in Salmonella typhimurium TA97 measured after 20 mins in absence of S9 fraction by microsome assay; assay type: toxicity; settings: salmonella enterica subsp. enterica serovar typhimurium, microsomes, dose 5-100 µg
[19] = Mutagenicity in Salmonella typhimurium TA98 measured after 20 mins in absence of S9 fraction by microsome assay; assay type: toxicity; settings: salmonella enterica subsp. enterica serovar typhimurium, microsomes, dose 5-100 µg
[20] = Mutagenicity in Salmonella typhimurium TA102 measured after 20 mins in presence of S9 fraction by microsome assay; assay type: toxicity, subcellular; settings: salmonella enterica subsp. enterica serovar typhimurium, s9, 20 min, dose 5-100 µg
[21] = Mutagenicity in Salmonella typhimurium TA100 measured after 20 mins in presence of S9 fraction by microsome assay; assay type: toxicity, subcellular; settings: salmonella enterica subsp. enterica serovar typhimurium, s9, 20 min, dose 5-100 µg
[22] = Mutagenicity in Salmonella typhimurium TA100 measured after 20 mins in absence of S9 fraction by microsome assay; assay type: toxicity; settings: salmonella enterica subsp. enterica serovar typhimurium, microsomes, dose 5-100 µg
[23] = Genotoxicity in mouse RAW264.7 cells assessed as survival at 1880 uM measured after 24 hrs by micronucleus test (reference value: 100%); assay type: toxicity, cell-based; settings: read-out: Survival
[24] = Selectivity index, ratio of GI50 for mouse RAW264.7 cells assessed as reduction in cell viability measured after 24 hrs by WST1 assay to IC50 for antitrypanosomal activity against Trypanosoma cruzi Y axenic amastigotes infected in African green monkey Vero cells; assay type: toxicity; settings: read-out: Selectivity Index
[25] = tested on: HepG2; assay: Genotoxicity in human HepG2 assessed as mitotic index at 3760 uM measured after 24 hrs by micronucleus test (reference value: 61 to 108); assay type: toxicity, cell-based; settings: hepg2, 24 h
[26] = tested on: HepG2; assay: Genotoxicity in human HepG2 assessed as number of micronucleated cells at 3760 uM measured after 24 hrs by micronucleus test (reference value: 14 to 18); assay type: toxicity, cell-based; settings: hepg2, 24 h
[27] = tested on: HepG2; assay: Genotoxicity in human HepG2 assessed as number of micronucleated cells at 376 uM measured after 24 hrs by micronucleus test (reference value: 14 to 18); assay type: toxicity, cell-based; settings: hepg2, 24 h
[28] = Mutagenicity in Salmonella typhimurium YG1024 at 5 to 100 ug/plate after 20 mins by microsome assay; assay type: toxicity; settings: salmonella enterica subsp. enterica serovar typhimurium, microsomes, dose 5-100 µg
[29] = Genotoxicity in human HepG2 assessed as survival at 3760 uM measured after 24 hrs by micronucleus test (reference value: 100%); assay type: toxicity, cell-based; settings: HepG2 cells, read-out: Survival
[30] = tested on: RAW264.7; assay: Genotoxicity in mouse RAW264.7 cells assessed as mitotic index at 376 uM measured after 24 hrs by micronucleus test (reference value: 40 to 249); assay type: toxicity, cell-based; settings: raw264.7, 24 h
[31] = tested on: HepG2; assay: Cytotoxicity against human HepG2 cells at 376 uM measured after 24 hrs by LDH assay; assay type: cell-based; settings: hepg2, 24 h
[32] = Selectivity index, ratio of GI50 for mouse RAW264.7 cells assessed as reduction in cell viability measured after 24 hrs by WST1 assay to IC50 for antitrypanosomal activity against bloodstream form of Trypanosoma cruzi Y trypomastigotes infected in African green monkey Vero cells; assay type: toxicity; settings: read-out: Selectivity Index
[33] = tested on: Trypanosoma cruzi; assay: Antitrypanosomal activity against Trypanosoma cruzi Y axenic amastigotes infected in African green monkey Vero cells after 24 hrs by MTT assay; assay type: functional, organism-based
[34] = tested on: HepG2; assay: Genotoxicity in human HepG2 assessed as mitotic index at 376 uM measured after 24 hrs by micronucleus test (reference value: 61 to 108); assay type: toxicity, cell-based; settings: hepg2, 24 h
[35] = Cytotoxicity against mouse RAW264.7 cells assessed as reduction in cell viability measured after 24 hrs by WST1 assay; assay type: cell-based
[36] = tested on: RAW264.7; assay: Genotoxicity in mouse RAW264.7 cells assessed as number of micronucleated cells at 1880 uM measured after 24 hrs by micronucleus test (reference value: 12 to 15); assay type: toxicity, cell-based; settings: raw264.7, 24 h
[37] = Selectivity index, ratio of GI50 for human HepG2 cells assessed as reduction in cell viability measured after 24 hrs by WST1 assay to IC50 for antitrypanosomal activity against bloodstream form of Trypanosoma cruzi Y trypomastigotes infected in African green monkey Vero cells; assay type: toxicity; settings: read-out: Selectivity Index
[38] = Mutagenicity in Salmonella typhimurium TA97 assessed as revertant/ug measured after 20 mins in presence of S9 fraction by microsome assay; assay type: toxicity, subcellular; settings: salmonella enterica subsp. enterica serovar typhimurium, s9, 20 min
[39] = Toxicity in Salmonella typhimurium YG1024 at 5 to 100 ug/plate after 20 mins by colony counting method; settings: salmonella enterica subsp. enterica serovar typhimurium, dose 5-100 µg
[40] = Mutagenicity in Salmonella typhimurium TA97 assessed as revertant/ug measured after 20 mins in absence of S9 fraction by microsome assay; assay type: toxicity; settings: salmonella enterica subsp. enterica serovar typhimurium, microsomes
[41] = tested on: RAW264.7; assay: Genotoxicity in mouse RAW264.7 cells assessed as mitotic index at 1880 uM measured after 24 hrs by micronucleus test (reference value: 40 to 249); assay type: toxicity, cell-based; settings: raw264.7, 24 h
[42] = tested on: HepG2; assay: Genotoxicity in human HepG2 assessed as number of micronucleated cells at 1880 uM measured after 24 hrs by micronucleus test (reference value: 14 to 18); assay type: toxicity, cell-based; settings: hepg2, 24 h
[43] = Genotoxicity in human HepG2 assessed as survival at 1880 uM measured after 24 hrs by micronucleus test (reference value: 100%); assay type: toxicity, cell-based; settings: HepG2 cells, read-out: Survival
[44] = Genotoxicity in mouse RAW264.7 cells assessed as survival at 3760 uM measured after 24 hrs by micronucleus test (reference value: 100%); assay type: toxicity, cell-based; settings: read-out: Survival
[45] = tested on: RAW264.7; assay: Genotoxicity in mouse RAW264.7 cells assessed as number of micronucleated cells at 188 uM measured after 24 hrs by micronucleus test (reference value: 12 to 15); assay type: toxicity, cell-based; settings: raw264.7, 24 h
[46] = Genotoxicity in human HepG2 assessed as survival at 376 uM measured after 24 hrs by micronucleus test (reference value: 100%); assay type: toxicity, cell-based; settings: HepG2 cells, read-out: Survival
[47] = tested on: RAW264.7; assay: Genotoxicity in mouse RAW264.7 cells assessed as mitotic index at 188 uM measured after 24 hrs by micronucleus test (reference value: 40 to 249); assay type: toxicity, cell-based; settings: raw264.7, 24 h
[48] = tested on: RAW264.7; assay: Genotoxicity in mouse RAW264.7 cells assessed as number of micronucleated cells at 376 uM measured after 24 hrs by micronucleus test (reference value: 12 to 15); assay type: toxicity, cell-based; settings: raw264.7, 24 h
[49] = tested on: RAW264.7; assay: Cytotoxicity against mouse RAW264.7 cells at 18.8 to 376 uM measured after 24 hrs by LDH assay; assay type: cell-based; settings: raw264.7, 24 h, dose 18.8-376 µM
[50] = Mutagenicity in Salmonella typhimurium TA98 measured after 20 mins in presence of S9 fraction by microsome assay; assay type: toxicity, subcellular; settings: salmonella enterica subsp. enterica serovar typhimurium, s9, 20 min, dose 5-100 µg

SMILES: CCOC(=O)c1cn(-c2c([N+](=O)[O-])ncn2C)nn1
- selectivity ratio at 24 h [1]: > 0.95
- Activity [2]: Non-Toxic
- Activity_index [3]: 60
- Activity [4]: Toxic
- Activity [5]: 17
- Activity_index [6]: 78
- viability at 24 h, 376 µM [7]: 99%
- viability at 24 h, 188 µM [8]: 99%
- viability at 24 h, 188 µM [9]: 99%
- Activity [10]: 13
- IC50 [11]: 45.3 µM
- Activity_index [12]: 55
- Activity [13]: Toxic
- Activity [14]: Toxic
- Activity [15]: 3.36 revertants/µg
- GI50 at 24 h [16]: > 376 µM
- Activity [17]: 3.54 revertants/µg
- Activity [18]: Toxic
- Activity [19]: Non-Toxic
- Activity [20]: Toxic
- Activity [21]: Toxic
- Activity [22]: Toxic
- viability at 24 h, 1880 µM [23]: 95%
- selectivity ratio at 24 h [24]: > 0.95
- Activity_index [25]: 52
- Activity [26]: 35
- Activity [27]: 21
- Activity [28]: Non-Toxic
- viability at 24 h, 3760 µM [29]: 90%
- Activity_index [30]: 80
- Activity [31]: Toxic
- selectivity ratio at 24 h [32]: > 8.3
- IC50 [33]: 393 µM
- Activity_index [34]: 50
- GI50 at 24 h [35]: > 376 µM
- Activity [36]: 13
- selectivity ratio at 24 h [37]: > 8.3
- Activity [38]: 0.714 µg
- Activity [39]: Toxic
- Activity [40]: 2.19 revertants/µg
- Activity_index [41]: 100
- Activity [42]: 32
- viability at 24 h, 1880 µM [43]: 97%
- viability at 24 h, 3760 µM [44]: 90%
- Activity [45]: 11
- viability at 24 h, 376 µM [46]: 99%
- Activity_index [47]: 58
- Activity [48]: 10
- Activity [49]: Non-Toxic
- Activity [50]: Non-Toxic

SMILES: Cn1cnc([N+](=O)[O-])c1-n1cncn1
- IC50 [11]: 354 µM

SMILES: COC(=O)c1cn(-c2c([N+](=O)[O-])ncn2C)nn1
- IC50 [11]: 31.3 µM
